Laboratory results taken from patent US20200261421A1, “HETEROCYCLIC COMPOUNDS AS HIV PROTEASE INHIBITORS” (Merck Sharp & Dohme Corp., priority 2016, published 2020).

Target: T1, wild-type HIV-1 protease (Human immunodeficiency virus type 1 group M subtype B, UniProt P04585)
T1 construct: Escherichia coli expressed wild-type HIV-1 protease protein; made in house; host or cells: Escherichia coli
Test: Assay for Inhibition of Microbial Expressed HIV Protease
Assay type: biochemical
Conditions: Escherichia coli expressed wild-type HIV-1 protease, peptide substrate cleavage; mean of at least two independent experiments
Description: Inhibition of Escherichia coli expressed wild-type HIV-1 protease protein was carried out with a peptide substrate [Val-Ser-Gln-Asn-Wnaphtyl)Ala-Pro-Ile-Val]. The inhibitor compound was preincubated with HIV-1 protease enzyme in assay buffer (50 mM sodium acetate, pH 5.5, 100 mM NaCl, and 0.1% BSA) for 30 minutes at room temperature. Peptide substrate was added to 400 μM in a total volume of 20 μL containing 20 pM HIV-1 protease (final) after which the reaction was incubated for 1 hour at 30° C. The reaction was quenched by the addition of formic acid and HIV protease inhibitor indinavir to 0.012% and 150 nM final concentrations, respectively. Product formation was determined after separation of product and substrate on a ZORBAX Eclipse XDB-C18 column (Aligent Technologies, Santa Clara, Calif., USA) connected to an API 4000™ mass spectrometer (AB Sciex, Pte. Ltd., Concord Ontario, Canada) with multiple reaction monitoring (transitions were 644.5/428.9 and 615.4/422.2 (M1/M3) for product and indinavir respectively). The extent of inhibition of the reaction was determined from the peak area of the products. Analysis of the products, independently synthesized, provided quantitation standards and confirmation of the product composition. […] Ic50's refer to the 50% inhibition of the cleavage of a peptide substrate by hiv protease.
Data shown in the table reflects the mean of at least two independent experiments.

Row | SMILES | IC50 [nM]
1 | CC(C)CC1(c2ccccc2)NC(=N)N(Cc2ccc(C(F)(F)F)c(C(=O)NCc3ccc(C#N)cc3)c2)C1=O (stereo not shown) [Example 1, N-(4-cyanobenzyl)-5-{[2-imino-4-(2-methylpropyl)-5-oxo-4-phenylimidazolidin-1-yl]methyl}-2-(trifluoromethyl)benzamide] | 16
2 | CN(Cc1ccc(C#N)cc1)C(=O)c1cc(CN2C(=N)NC(c3ccccc3)(c3ccccc3)C2=O)ccc1C(F)(F)F [Example 2, N-(4-cyanobenzyl)-5-[(2-imino-5-oxo-4,4-diphenylimidazolidin-1-yl)methyl]-N-methyl-2-(trifluoromethyl)benzamide] | 18.2
3 | CN(Cc1ccccc1S(C)(=O)=O)C(=O)c1cc(CN2C(=N)NC(c3ccccc3)(c3ccccc3)C2=O)ccc1C(F)(F)F [Example 3, 5-[(2-imino-5-oxo-4,4-diphenylimidazolidin-1-yl)methyl]-N-methyl-N-[2-(methylsulfonyl)benzyl]-2-(trifluoromethyl)benzamide] | 22.3
4 | N=C1NC(c2ccc(F)cc2)(c2ccc(F)cc2)C(=O)N1Cc1ccc(C(F)(F)F)c(C(=O)NCc2cnccn2)c1 [Example 4, 5-{[4,4-bis(4-fluorophenyl)-2-imino-5-oxoimidazolidin-1-yl]methyl}-N-(pyrazin-2-ylmethyl)-2-(trifluoromethyl)benzamide] | 30.9
5 | N#Cc1ccc(CNC(=O)c2cc(CN3C(=N)NC(c4ccc(F)cc4)(c4ccc(F)cc4)C3=O)ccc2C(F)(F)F)cc1 [Example 5, 5-{[4,4-bis(4-fluorophenyl)-2-imino-5-oxoimidazolidin-1-yl]methyl}-N-(4-cyanobenzyl)-2-(trifluoromethyl)benzamide] | 43
6 | CC(C)CC1(c2ccccc2)NC(=N)N(Cc2ccc(C(F)(F)F)c(C(=O)NCc3cnccn3)c2)C1=O (stereo not shown) [Example 6, 5-{[2-imino-4-(2-methylpropyl)-5-oxo-4-phenylimidazolidin-1-yl]methyl}-N-(pyrazin-2-ylmethyl)-2-(trifluoromethyl)benzamide] | 46.4
7 | N=C1NC(c2ccccc2)(c2ccccc2)C(=O)N1Cc1ccc(C(F)(F)F)c(C(=O)NCc2ccccc2OC(F)F)c1 [Example 7, N-[2-(difluoromethoxy)benzyl]-5-[(2-imino-5-oxo-4,4-diphenylimidazolidin-1-yl)methyl]-2-(trifluoromethyl)benzamide] | 52.4
8 | CC(C)CCC1(c2ccccc2)NC(=N)N(Cc2ccc(C(F)(F)F)c(C(=O)NCc3ncccn3)c2)C1=O (stereo not shown) [Example 8, 5-{[2-imino-4-(3-methylbutyl)-5-oxo-4-phenylimidazolidin-1-yl]methyl}-N-(pyrimidin-2-ylmethyl)-2-(trifluoromethyl)benzamide] | 54.6
9 | N=C1NC(c2ccccc2)(c2ccccc2)C(=O)N1Cc1ccc(C(F)(F)F)c(C(=O)NCc2cccc(OC(F)F)c2)c1 [Example 9, N-[3-(difluoromethoxy)benzyl]-5-[(2-imino-5-oxo-4,4-diphenylimidazolidin-1-yl)methyl]-2-(trifluoromethyl)benzamide] | 68.4
10 | CC(C)CCC1(c2ccccc2)NC(=N)N(Cc2ccc(C(F)(F)F)c(C(=O)NCC(F)F)c2)C1=O (stereo not shown) [Example 10, N-(2,2-difluoroethyl)-5-{[2-imino-4-(3-methylbutyl)-5-oxo-4-phenylimidazolidin-1-yl]methyl}-2-(trifluoromethyl)benzamide] | 91.2
11 | CC(C)CC1(c2ccccc2)NC(=N)N(Cc2ccc(C(F)(F)F)c(C(=O)NCc3ncccn3)c2)C1=O (stereo not shown) [Example 11, 5-{[2-imino-4-(2-methylpropyl)-5-oxo-4-phenylimidazolidin-1-yl]methyl}-N-(pyrimidin-2-ylmethyl)-2-(trifluoromethyl)-benzamide] | 92.1
12 | N=C1NC(c2ccccc2)(c2ccccc2)C(=O)N1Cc1ccc(C(F)(F)F)c(C(=O)NCc2ccc(OC(F)F)cc2)c1 [Example 12, N-[4-(difluoromethoxy)benzyl]-5-[(2-imino-5-oxo-4,4-diphenylimidazolidin-1-yl)methyl]-2-(trifluoromethyl)benzamide] | 94.1
13 | CN(Cc1ccc(C#N)cc1)C(=O)c1cccc(CN2C(=N)NC(c3ccc(F)cc3)(c3ccc(F)cc3)C2=O)c1 [Example 13, 3-{[4,4-bis(4-fluorophenyl)-2-imino-5-oxoimidazolidin-1-yl]methyl}-N-(4-cyanobenzyl)-N-methylbenzamide] | 6.69
14 | CC(C)CCC1(c2ccccc2)NC(=N)N(Cc2cccc(C(=O)N(C)Cc3ccc(C#N)cc3)c2)C1=O (stereo not shown) [Example 14, N-(4-cyanobenzyl)-3-{[2-imino-4-(3-methylbutyl)-5-oxo-4-phenylimidazolidin-1-yl]methyl}-N-methylbenzamide] | 7.35
15 | CC(C)CC[C@]1(c2ccccc2)NC(=N)N([C@H](C)c2cccc(C(=O)N(C)Cc3ccc(F)cc3)c2)C1=O [Example 15, N-(4-fluorobenzyl)-3-{(1R)-1-[2-imino-4-(3-methylbutyl)-5-oxo-4-phenylimidazolidin-1-yl]ethyl}-N-methylbenzamide] | 9.11
16 | CC(C)CC1(c2ccc(F)cc2)NC(=N)N(Cc2cccc(C(=O)N(C)Cc3ccc(Cl)cc3)c2)C1=O (stereo not shown) [Example 16, N-(4-chlorobenzyl)-3-{[4-(4-fluorophenyl)-2-imino-4-(2-methylpropyl)-5-oxoimidazolidin-1-yl]methyl}-N-methylbenzamide] | 9.12
17 | CC(C)CCC1(c2ccccc2)NC(=N)N(Cc2cccc(C(=O)N(C)Cc3ccc(F)cc3)c2)C1=O (stereo not shown) [Example 17, N-(4-fluorobenzyl)-3-{[2-imino-4-(3-methylbutyl)-5-oxo-4-phenylimidazolidin-1-yl]methyl}-N-methylbenzamide] | 10.3
18 | CN(Cc1ccc(Cl)nc1)C(=O)c1cccc(CN2C(=N)NC(c3ccc(F)cc3)(c3ccc(F)cc3)C2=O)c1 [Example 18, 3-{[4,4-bis(4-fluorophenyl)-2-imino-5-oxoimidazolidin-1-yl]methyl}-N-[(6-chloropyridin-3-yl)methyl]-N-methylbenzamide] | 10.3
19 | CN(Cc1ccc(Cl)cc1)C(=O)c1cccc(CN2C(=N)NC(c3ccc(F)cc3)(c3cccc(C(N)=O)c3)C2=O)c1 (stereo not shown) [Example 19, 3-{[4-(3-carbamoylphenyl)-4-(4-fluorophenyl)-2-imino-5-oxoimidazolidin-1-yl]methyl}-N-(4-chlorobenzyl)-N-methylbenzamide] | 11.6
20 | C[C@H](c1ccc(F)cc1)N(C)C(=O)c1cccc(CN2C(=N)NC(c3ccccc3)(c3ccccc3)C2=O)c1 [Example 20, N-[(1R)-1-(4-fluorophenyl)ethyl]-3-[(2-imino-5-oxo-4,4-diphenylimidazolidin-1-yl)methyl]-N-methylbenzamide] | 11.7
21 | CN(Cc1ccc(Cl)cn1)C(=O)c1cccc(CN2C(=N)NC(c3ccc(F)cc3)(c3ccc(F)cc3)C2=O)c1 [Example 21, 3-{[4,4-bis(4-fluorophenyl)-2-imino-5-oxoimidazolidin-1-yl]methyl}-N-[(5-chloropyridin-2-yl)methyl]-N-methylbenzamide] | 12.7
22 | CC(C)CCC1(c2ccc(F)cc2)NC(=N)N(Cc2cccc(C(=O)N(C)Cc3ccc(Cl)cc3)c2)C1=O (stereo not shown) [Example 22, N-(4-chlorobenzyl)-3-{[4-(4-fluorophenyl)-2-imino-4-(3-methylbutyl)-5-oxoimidazolidin-1-yl]methyl}-N-methylbenzamide] | 12.9
23 | CN(Cc1ccccc1S(C)(=O)=O)C(=O)c1cccc(CN2C(=N)NC(c3ccccc3)(c3ccccc3)C2=O)c1 [Example 23, 3-[(2-imino-5-oxo-4,4-diphenylimidazolidin-1-yl)methyl]-N-methyl-N-[2-(methylsulfonyl)-benzyl]benzamide] | 12.9
24 | CC(C)CCC1(c2ccccc2)NC(=N)N(Cc2cccc(C(=O)N(C)[C@H](C)c3ccc(F)cc3)c2)C1=O (stereo partly drawn) [Example 24, N-[(1R)-1-(4-fluorophenyl)ethyl]-3-{[2-imino-4-(3-methylbutyl)-5-oxo-4-phenylimidazolidin-1-yl]methyl}-N-methylbenzamide] | 13.2
25 | CC(C)CC1(c2ccccc2)NC(=N)N(Cc2cccc(C(=O)N(C)Cc3ccc(Cl)cc3)c2)C1=O (stereo not shown) [Example 25, N-(4-chlorobenzyl)-3-{[2-imino-4-(2-methylpropyl)-5-oxo-4-phenylimidazolidin-1-yl]methyl}-N-methylbenzamide] | 13.8
26 | CC(C)CCC1(c2ccccc2)NC(=N)N(Cc2cccc(C(=O)N(C)Cc3ccc(Cl)cc3)c2)C1=O (stereo not shown) [Example 26, N-(4-chlorobenzyl)-3-{[2-imino-4-(3-methylbutyl)-5-oxo-4-phenylimidazolidin-1-yl]methyl}-N-methylbenzamide] | 13.9
27 | CCCC1(c2ccccc2)NC(=N)N(Cc2cccc(C(=O)N(C)Cc3ccc(Cl)cc3)c2)C1=O (stereo not shown) [Example 27, N-(4-chlorobenzyl)-3-[(2-imino-5-oxo-4-phenyl-4-propylimidazolidin-1-yl)methyl]-N-methylbenzamide] | 16.9
28 | CN(Cc1ccc(F)cc1)C(=O)c1cccc(CN2C(=N)NC(c3ccc(F)cc3)(c3ccc(F)cc3)C2=O)c1 [Example 28, 3-{[4,4-bis(4-fluorophenyl)-2-imino-5-oxoimidazolidin-1-yl]methyl}-N-(4-fluorobenzyl)-N-methylbenzamide] | 17.4
